{"source": "patent US10160762B2", "about": "“6-alkyl dihydropyrazolopyrimidinone compounds as PDE2 inhibitors” (Merck Sharp & Dohme Corp., priority 2015, dated 2018)", "target": "T1, Rhesus PDE2A3 (Macaca mulatta, UniProt B3VTJ2)", "T1 construct": "made in house; host or cells: AD293 cells, transient transfection; supernatant of sonicated lysate", "T1 sequence (B3VTJ2 1-941)": "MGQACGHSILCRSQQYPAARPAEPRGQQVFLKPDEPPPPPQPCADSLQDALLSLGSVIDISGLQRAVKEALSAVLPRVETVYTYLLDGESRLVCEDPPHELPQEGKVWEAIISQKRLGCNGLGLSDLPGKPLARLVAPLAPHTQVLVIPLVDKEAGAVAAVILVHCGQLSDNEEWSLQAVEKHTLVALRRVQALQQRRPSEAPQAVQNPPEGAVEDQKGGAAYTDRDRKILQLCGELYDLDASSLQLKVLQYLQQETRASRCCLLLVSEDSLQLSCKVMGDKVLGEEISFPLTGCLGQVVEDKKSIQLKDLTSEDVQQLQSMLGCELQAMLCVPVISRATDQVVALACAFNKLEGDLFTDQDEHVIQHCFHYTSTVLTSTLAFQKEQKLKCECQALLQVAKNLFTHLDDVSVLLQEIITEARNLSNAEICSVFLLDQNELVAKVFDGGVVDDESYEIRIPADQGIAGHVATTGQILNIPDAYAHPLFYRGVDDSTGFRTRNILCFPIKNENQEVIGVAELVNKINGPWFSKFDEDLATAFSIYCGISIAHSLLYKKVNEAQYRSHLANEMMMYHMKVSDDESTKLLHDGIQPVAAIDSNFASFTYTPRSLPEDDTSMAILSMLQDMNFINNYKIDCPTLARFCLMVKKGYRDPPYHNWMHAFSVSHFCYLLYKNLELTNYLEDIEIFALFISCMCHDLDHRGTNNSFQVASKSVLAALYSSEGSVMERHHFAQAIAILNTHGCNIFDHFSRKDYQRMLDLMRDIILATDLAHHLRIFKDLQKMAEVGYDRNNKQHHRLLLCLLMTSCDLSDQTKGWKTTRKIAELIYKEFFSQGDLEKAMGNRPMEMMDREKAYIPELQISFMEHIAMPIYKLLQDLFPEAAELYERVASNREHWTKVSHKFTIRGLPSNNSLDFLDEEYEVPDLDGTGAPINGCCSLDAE", "assay": "PDE2 fluorescence polarization (IMAP FP) inhibition assay, rhesus PDE2A3", "format": "biochemical, rhesus macaque", "in_short": "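Enzyme source was the lysate supernatant of AD293 cells transiently expressing rhesus PDE2A3, diluted to give 20% conversion of 50 nM FAM-cAMP, with 1 µM cGMP as activator. Buffer was 10 mM Tris pH 7.2, 10 mM MgCl2, 1 mM DTT.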", "key": {"[1]": {"settings": "Lab A, read-out: Rhesus PDE2 Ki (nM) Lab A"}, "[2]": {"settings": "Lab B, read-out: Rhesus PDE2 Ki (nM) Lab B"}}, "note": "Like-named read-outs stand apart in the source and are kept apart here."}
{"smiles": "Cc1nc2c(c(CO)nn2Cc2ccc(C(F)(F)F)cc2)c(=O)[nH]1", "note": "[Example 8, 3-(Hydroxymethyl)-6-methyl-1-[4-(trifluoromethyl)benzyl]-1,5-dihydro-4H-pyrazolo[3,4-d]pyrimidin-4-one]", "values": [{"measurement": "Ki", "setting": "[1]", "value": 192, "unit": "nM"}]}
{"smiles": "Cc1nc2c(c(CCl)nn2C(c2ccc(C(F)(F)F)cc2)C2CC2)c(=O)[nH]1", "note": "(stereo not shown) [Example 232, 3-(chloromethyl)-1-(cyclopropyl(4-(trifluoromethyl)phenyl)methyl)-6-methyl-1H-pyrazolo[3,4-d]pyrimidin-4(5H)-one]", "values": [{"measurement": "Ki", "setting": "[1]", "value": 0.47, "unit": "nM"}, {"measurement": "Ki", "setting": "[2]", "value": 0.85, "unit": "nM"}]}
{"smiles": "CCC(c1ccc(C(F)(F)F)cc1)n1nc(CO)c2c(=O)[nH]c(C)nc21", "note": "(single isomer, unassigned) [Example 132, (R)- or (S)-3-(Hydroxymethyl)-6-methyl-1-(1-(4-(trifluoro-methyl)phenyl)propyl)-1H-pyrazolo[3,4-d]pyrimidin-4(5H)-one]", "values": [{"measurement": "Ki", "setting": "[2]", "value": 1.5, "unit": "nM"}]}
{"smiles": "Cc1nc2c(c(CF)nn2C(c2ccc(C(F)(F)F)cc2)C(F)(F)F)c(=O)[nH]1", "note": "(stereo not shown) [Example 201, 3-(Fluoromethyl)-6-methyl-1-(2,2,2-trifluoro-1-(4-(trifluoromethyl)phenyl)-ethyl)-1H-pyrazolo[3,4-d]pyrimidin-4(5H)-one]", "values": [{"measurement": "Ki", "setting": "[1]", "value": 1.4, "unit": "nM"}, {"measurement": "Ki", "setting": "[2]", "value": 4.1, "unit": "nM"}]}
{"smiles": "Cc1nc2c(c(CF)nn2C(C)c2ccc(S(F)(F)(F)(F)F)cc2)c(=O)[nH]1", "note": "(single isomer, unassigned) [Example 200]", "values": [{"measurement": "Ki", "setting": "[2]", "value": 2.4, "unit": "nM"}]}
{"smiles": "Cc1nc2c(c(CF)nn2C(C)c2ccc(C(C)(C)C)cc2)c(=O)[nH]1", "note": "(single isomer, unassigned) [Example 215, (S)- or (R)-1-(1-(4-tert-Butylphenyl)ethyl)-3-(fluoromethyl)-6-methyl-1H-pyrazolo[3,4-d]pyrimidin-4(5H)-one]", "values": [{"measurement": "Ki", "setting": "[1]", "value": 0.24, "unit": "nM"}, {"measurement": "Ki", "setting": "[2]", "value": 0.63, "unit": "nM"}]}
{"smiles": "Cc1nc2c(c(CF)nn2C2(c3ccc(C(F)(F)F)cc3)CCC2)c(=O)[nH]1", "note": "[Example 202, 3-(Fluoromethyl)-6-methyl-1-(1-(4-(trifluoromethyl)phenyl)cyclobutyl)-1H-pyrazolo[3,4-d]pyrimidin-4(5H)-one]", "values": [{"measurement": "Ki", "setting": "[2]", "value": 3.1, "unit": "nM"}]}
{"smiles": "Cc1nn(C(C)c2ccc(C(F)(F)F)cc2)c2nc(Cc3ccccc3O)[nH]c(=O)c12", "note": "(stereo not shown) [Example 31, 6-(2-Hydroxybenzyl)-3-methyl-1-(1-(4-(trifluoromethyl)phenyl)ethyl)-1H-pyrazolo[3,4-d]pyrimidin-4(5H)-one]", "values": [{"measurement": "Ki", "setting": "[1]", "value": 65, "unit": "nM"}, {"measurement": "Ki", "setting": "[2]", "value": 128, "unit": "nM"}]}
{"smiles": "Cc1ccc(C(C)n2nc(CF)c3c(=O)[nH]c(C)nc32)cc1", "note": "(stereo not shown) [Example 203, 3-(Fluoromethyl)-6-methyl-1-(1-p-tolylethyl)-1H-pyrazolo[3,4-d]pyrimidin-4(5H)-one]", "values": [{"measurement": "Ki", "setting": "[1]", "value": "~12", "unit": "nM"}, {"measurement": "Ki", "setting": "[2]", "value": 12, "unit": "nM"}]}
{"smiles": "COc1ccc(C(=O)c2nc3c(c(C(F)F)nn3C(C)c3ccc(C(F)(F)F)cc3)c(=O)[nH]2)cc1OC", "note": "(stereo not shown) [Example 198, 3-(Difluoromethyl)-6-(3,4-dimethoxybenzoyl)-1-(1-(4-(trifluoromethyl)phenyl)ethyl)-1H-pyrazolo[3,4-d]pyrimidin-4(5H)-one]", "values": [{"measurement": "Ki", "setting": "[2]", "value": 17, "unit": "nM"}]}
{"smiles": "Cc1nc2c(c(C(O)C(F)(F)F)nn2C(C)c2ccc(C(F)(F)F)cc2)c(=O)[nH]1", "note": "(stereo not shown) [Example 327, 6-Methyl-3-(2,2,2-trifluoro-1-hydroxyethyl)-1-{1-[4-(trifluoromethyl)phenyl]ethyl}-1,5-dihydro-4H-pyrazolo[3,4-d]pyrimidin-4-one]", "values": [{"measurement": "Ki", "setting": "[1]", "value": 93, "unit": "nM"}]}
{"smiles": "Cc1nc2c(c(C)nn2C(C)c2ccc(C(F)(F)F)cc2)c(=O)[nH]1", "note": "(single isomer, unassigned) [Example 36]", "values": [{"measurement": "Ki", "setting": "[1]", "value": 443, "unit": "nM"}]}
{"smiles": "Cc1nc2c(c(C(F)F)nn2C(C)c2ccc(OC(F)F)cc2)c(=O)[nH]1", "note": "(single isomer, unassigned) [Example 182, (S)- or (R)-1-(1-(4-(Difluoromethoxy)phenyl)ethyl)-3-(difluoromethyl)-6-methyl-1H-pyrazolo[3,4-d]pyrimidin-4(5H)-one]", "values": [{"measurement": "Ki", "setting": "[2]", "value": 1.2, "unit": "nM"}]}
{"smiles": "Cc1nc2c(c(CO)nn2C(C)c2ccc(C(F)(F)F)c(F)c2)c(=O)[nH]1", "note": "(single isomer, unassigned) [Example 12, (R)- or (S)-1-(1-(3-Fluoro-4-(trifluoromethyl)phenyl)ethyl)-3-(hydroxymethyl)-6-methyl-1H-pyrazolo[3,4-d]pyrimidin-4(5H)-one]", "values": [{"measurement": "Ki", "setting": "[1]", "value": 278, "unit": "nM"}, {"measurement": "Ki", "setting": "[2]", "value": 514, "unit": "nM"}]}
{"smiles": "Cc1nc2c(c(CO)nn2C(C)(C)c2ccc(C(F)(F)F)cc2)c(=O)[nH]1", "note": "[Example 9, 3-(Hydroxymethyl)-6-methyl-1-{1-methyl-1-[4-(trifluoromethyl)phenyl]ethyl}-1,5-dihydro-4H-pyrazolo[3,4-d]pyrimidin-4-one]", "values": [{"measurement": "Ki", "setting": "[1]", "value": 54, "unit": "nM"}, {"measurement": "Ki", "setting": "[2]", "value": 56, "unit": "nM"}]}
{"smiles": "Cc1nc2c(c(CO)nn2C(C)c2ccc(C(F)(F)F)c(F)c2)c(=O)[nH]1", "note": "(stereo not shown) [Example 1, 1-(1-(3-Fluoro-4-(trifluoromethyl)phenyl)ethyl)-3-(hydroxymethyl)-6-methyl-1H-pyrazolo[3,4-d]pyrimidin-4(5H)-one]", "values": [{"measurement": "Ki", "setting": "[1]", "value": 4.1, "unit": "nM"}, {"measurement": "Ki", "setting": "[2]", "value": 7.2, "unit": "nM"}]}
{"smiles": "Cc1nn(C(C)c2ccc(C(F)(F)F)cc2)c2nc(-c3cnn(C)c3)[nH]c(=O)c12", "note": "(stereo not shown) [Example 53, 3-Methyl-6-(1-methyl-1H-pyrazol-4-yl)-1-{1-[4-(trifluoromethyl)phenyl]ethyl}-1,5-dihydro-4H-pyrazolo[3,4-d]pyrimidin-4-one]", "values": [{"measurement": "Ki", "setting": "[1]", "value": 29, "unit": "nM"}]}
{"smiles": "CCOCCc1nc2c(c(C)nn2C(C)c2ccc(C(F)(F)F)cc2)c(=O)[nH]1", "note": "(stereo not shown) [Example 35, 6-(2-Ethoxyethyl)-3-methyl-1-(1-(4-(trifluoromethyl)phenyl)ethyl)-1H-pyrazolo[3,4-d]pyrimidin-4(5H)-one]", "values": [{"measurement": "Ki", "setting": "[1]", "value": 164, "unit": "nM"}]}
{"smiles": "Cc1nn(C(C)c2ccc(C(F)(F)F)cc2)c2nc(-c3cnc4ccccc4n3)[nH]c(=O)c12", "note": "(stereo not shown) [Example 50, 3-Methyl-6-quinoxalin-2-yl-1-{1-[4-(trifluoromethyl)phenyl]ethyl}-1,5-dihydro-4H-pyrazolo[3,4-d]pyrimidin-4-one]", "values": [{"measurement": "Ki", "setting": "[1]", "value": 62, "unit": "nM"}]}
{"smiles": "COc1ccc(Cc2nc3c(c(C(F)F)nn3C(C)c3ccc(C(F)(F)F)cc3)c(=O)[nH]2)cc1OC", "note": "(single isomer, unassigned) [Example 196]", "values": [{"measurement": "Ki", "setting": "[2]", "value": 28, "unit": "nM"}]}
{"smiles": "Cc1nn(C(C)c2ccc(C(F)(F)F)cc2)c2nc(C3CCC3)[nH]c(=O)c12", "note": "(stereo not shown) [Example 39, 6-Cyclobutyl-3-methyl-1-{1-[4-(trifluoromethyl)phenyl]ethyl}-1,5-dihydro-4H-pyrazolo[3,4-d]pyrimidin-4-one]", "values": [{"measurement": "Ki", "setting": "[1]", "value": 147, "unit": "nM"}]}
{"smiles": "Cc1nc2c(c(CF)nn2C(C)c2ccc(CC(F)(F)F)cc2)c(=O)[nH]1", "note": "(single isomer, unassigned) [Example 211, (S)- or (R)-3-(Fluoromethyl)-6-methyl-1-(1-(4-(2,2,2-trifluoroethyl)phenyl)ethyl)-1H-pyrazolo[3,4-d]pyrimidin-4(5H)-one]", "values": [{"measurement": "Ki", "setting": "[2]", "value": 0.49, "unit": "nM"}]}
{"smiles": "Cc1nc2c(c(C(F)F)nn2C(c2ccc(OC(F)(F)F)c(F)c2)C2CC2)c(=O)[nH]1", "note": "(stereo not shown) [Example 193, 1-(Cyclopropyl(3-fluoro-4-(trifluoromethoxy)phenyl)methyl)-3-(difluoromethyl)-6-methyl-1H-pyrazolo[3,4-d]pyrimidin-4(5H)-one]", "values": [{"measurement": "Ki", "setting": "[2]", "value": 1.2, "unit": "nM"}]}
{"smiles": "Cc1nc2c(c(C(F)F)nn2C(C)c2ccc(C(F)(F)F)cc2)c(=O)[nH]1", "note": "(single isomer, unassigned) [Example 176]", "values": [{"measurement": "Ki", "setting": "[2]", "value": 1.4, "unit": "nM"}]}
{"smiles": "Cc1nc2c(c(CO)nn2C(c2ccc(C(F)(F)F)cc2)C2CC2)c(=O)[nH]1", "note": "(stereo not shown) [Example 28, 1-(Cyclopropyl(4-(trifluoromethyl)phenyl)methyl)-3-(hydroxymethyl)-6-methyl-1H-pyrazolo[3,4-d]pyrimidin-4(5H)-one]", "values": [{"measurement": "Ki", "setting": "[1]", "value": 0.75, "unit": "nM"}, {"measurement": "Ki", "setting": "[2]", "value": 2.2, "unit": "nM"}]}
